Columns and labels:
Plasmopara viticola = test: in vivo fungicidal activity on test plants, visually estimated infection
[1] = test system: recombinant IPMDH (3-isopropylmalate dehydrogenase); test: biochemical screen for inhibitors of recombinant IPMDH (spectrometric NADH assay at 340 nm); parameters: species or system Septoria nodorum; conditions: buffer as control; for % inhibition at 3.3 ppm: first test; for % inhibition at 3.3 ppm, Repeat: repeat test
Protocol: The recombinant IPMDH was used in a biochemical screen for inhibitors of 3-isopropylmalate dehydrogenase as follows. The assay was originally described by Parsons in 1969 (Purification and properties of β-IPMD, Parsons et al., Journal of Biological Chemistry, 244, (4), 996-1003. It is an spectrometric assay, based on the reduction of coenzyme […] measured at 340 nm. Prior to any assay the rate of production of a given unit of β-NADH was determined and only the rate of the initial linear fraction of the progress curve was taken for the evaluated assay. The reagents for the assay are: the enzyme 3-Isopropyl malate dehydrogenase, KH2PO4, MnCl2, β-NAD (nicotinamide adenine dinucleotide) and the substrate isopropylmalate. […] The mixture is incubated for two minutes at 25°C and the reaction is started by adding 140µl buffer containing the substrate IPM, KH2PO4, MnCl2, β-NAD at pH8. The rate of the increase β-NADH is monitored each minute and five data points are collected. The inhibition of the potential inhibitors are expressed in %-inhibition using buffer as a control. […] Tabulated below are a selection of compounds which gave a significant inhibition of recombinant IPMDH. These compounds were also able to inhibit Septoria nodorum in vitro. […] Approximately 10^5 conidia of Septoria nodorum BS171 were inoculated to Cz medium with the compounds and the effect on fungal growth assessed after six days.

Phytophthora infestans = type: in vivo; conditions: 500 ppm; late tomato or potato blight; score = % control class
Septoria nodorum (BS171) = test: in vitro inhibition of fungal growth in Cz medium; type: cell-based; conditions: Parastagonospora nodorum, 144 h; tested at 10, 25, 50, 75, 100, 150, 200 and 250 ppm in Cz medium; growth assessed after six days
Source text: Tabulated below are a selection of compounds which gave a significant inhibition of recombinant IPMDH. These compounds were also able to inhibit Septoria nodorum in vitro. […] Approximately 10^5 conidia of Septoria nodorum BS171 were inoculated to Cz medium with the compounds and the effect on fungal growth assessed after six days.

Erysiphe cichoracearum = test: in vivo fungicidal activity on test plants, visually estimated infection; conditions: 500 ppm
[2] = 125 ppm, vine downy mildew, score = % control class
[3] = cucumber powdery mildew, score = % control class

Compound: O=C(Oc1ccccc1)n1c(C(F)(F)F)nc2cc(Br)c(Cl)cc21 [Compound 1, phenyl 5-bromo-6-chloro-2-trifluoromethyl-benzimidazole-1-carboxylate]
- Score (Plasmopara viticola; [2]): 5 (@125 ppm) (65-74)
- % inhibition at 3.3 ppm [1]: 33%
- % inhibition at 3.3 ppm, Repeat [1]: 56%
- Score (Phytophthora infestans): 7 (85-94)
- MIC (Septoria nodorum (BS171)): 100 to 150 µg/mL
- Score (Erysiphe cichoracearum; [3]): 6 (75-84)

Compound: O=C(Oc1ccccc1)n1c(C(F)(F)F)nc2c(Br)c(Br)c(Br)cc21 [Compound 2, phenyl 4,5,6-tribromo-2-trifluoromethyl-benzimidazole-1-carboxylate]
- Score (Plasmopara viticola; [2]): 6 (@125 ppm) (75-84)
- % inhibition at 3.3 ppm [1]: 33%
- % inhibition at 3.3 ppm, Repeat [1]: 42%
- Score (Phytophthora infestans): 6 (75-84)
- MIC (Septoria nodorum (BS171)): > 250 µg/mL
- Score (Erysiphe cichoracearum; [3]): 7 (85-94)

Compound: CC(C)CCC(C)OC(=O)n1c(C(F)(F)F)nc2c(Br)c(Br)c(Br)cc21 (centres unmarked) [Compound 3, 1,4-dimethylpentyl 4,5,6-tribromo-2-trifluoromethyl-benzimidazole-1-carboxylate]
- Score (Plasmopara viticola; 500 ppm, vine downy mildew, score = % control class): 8 (95-100)
- % inhibition at 3.3 ppm [1]: 57%
- % inhibition at 3.3 ppm, Repeat [1]: 20%
- MIC (Septoria nodorum (BS171)): 100 to 150 µg/mL
- Score (Erysiphe cichoracearum; [3]): 8 (95-100)

Compound: N#Cc1sc2c(=O)c3ccccc3c(=O)c=2sc1C#N [Compound 4, 5,10-dioxo-5,10-dihydronaphtho-[2,3-b][1,4]dithiine-2,3-dicarbonitrile]
- Score (Plasmopara viticola; 125 ppm): 7 (@125 ppm) (key: 0-20; 1: 20-34; 2: 35-44; 3: 45-54; 55-64; 65-74; 6: 75-84; 7: 85-94; 8: 95-100)
- % inhibition at 3.3 ppm [1]: 41%
- % inhibition at 3.3 ppm, Repeat [1]: 66%
- Score (Phytophthora infestans): 7 (85-94)
- MIC (Septoria nodorum (BS171)): 0 to 10 µg/mL
- Score (Erysiphe cichoracearum): 0 (key: 0-20; 1: 20-34; 2: 35-44; 3: 45-54; 55-64; 65-74; 6: 75-84; 7: 85-94; 8: 95-100)
